Test results: publication PMC3950665, “Syn5 RNA polymerase synthesizes precise run-off RNA products” (Nucleic Acids Research, 2013)

What was measured:
Syn5 RNA polymerase = molecular target: T1, Syn5 RNA polymerase (Synechococcus phage Syn5, UniProt A4ZR96); test: run-off transcription, agarose gel and RNA yield by A260; format: biochemical; conditions: ATP, GTP, NotI-linearized pET24-Syn5RNAP, 6 mM MgCl2, pH 8.0, no KCl, 24°C
T1 construct: gene 15; His-tagged, pET24 (NdeI/NotI), expressed in E. coli BL21(DE3); single-subunit
T1 sequence (A4ZR96 1-779): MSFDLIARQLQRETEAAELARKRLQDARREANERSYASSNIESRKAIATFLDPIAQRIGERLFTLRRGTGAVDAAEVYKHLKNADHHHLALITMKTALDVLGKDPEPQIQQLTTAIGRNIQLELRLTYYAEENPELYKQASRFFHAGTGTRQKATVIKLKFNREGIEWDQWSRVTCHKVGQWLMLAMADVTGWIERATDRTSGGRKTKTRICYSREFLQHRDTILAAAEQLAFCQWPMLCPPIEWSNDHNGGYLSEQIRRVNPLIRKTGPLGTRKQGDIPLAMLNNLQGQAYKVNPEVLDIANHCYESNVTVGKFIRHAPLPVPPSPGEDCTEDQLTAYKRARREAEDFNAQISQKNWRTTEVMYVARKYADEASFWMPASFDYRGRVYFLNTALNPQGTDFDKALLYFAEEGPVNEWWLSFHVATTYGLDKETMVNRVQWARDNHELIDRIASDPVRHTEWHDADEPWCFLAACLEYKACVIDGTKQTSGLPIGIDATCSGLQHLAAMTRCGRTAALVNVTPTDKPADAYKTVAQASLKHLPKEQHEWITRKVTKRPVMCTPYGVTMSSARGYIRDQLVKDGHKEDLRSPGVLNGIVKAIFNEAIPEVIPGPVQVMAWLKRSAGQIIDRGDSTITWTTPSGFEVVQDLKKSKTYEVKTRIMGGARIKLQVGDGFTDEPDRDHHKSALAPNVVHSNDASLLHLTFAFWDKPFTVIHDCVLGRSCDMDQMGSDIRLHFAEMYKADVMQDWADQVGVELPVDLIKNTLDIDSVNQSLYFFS

T7 RNA polymerase = molecular target: T2, T7 RNA polymerase (Escherichia phage T7, UniProt P00573); test: as above; format: biochemical; conditions: ATP, GTP, NotI-linearized pET24-Syn5RNAP, 6 mM MgCl2, pH 8.0, no KCl, 37°C
T2 construct: gene 1
T2 sequence (P00573 whole entry): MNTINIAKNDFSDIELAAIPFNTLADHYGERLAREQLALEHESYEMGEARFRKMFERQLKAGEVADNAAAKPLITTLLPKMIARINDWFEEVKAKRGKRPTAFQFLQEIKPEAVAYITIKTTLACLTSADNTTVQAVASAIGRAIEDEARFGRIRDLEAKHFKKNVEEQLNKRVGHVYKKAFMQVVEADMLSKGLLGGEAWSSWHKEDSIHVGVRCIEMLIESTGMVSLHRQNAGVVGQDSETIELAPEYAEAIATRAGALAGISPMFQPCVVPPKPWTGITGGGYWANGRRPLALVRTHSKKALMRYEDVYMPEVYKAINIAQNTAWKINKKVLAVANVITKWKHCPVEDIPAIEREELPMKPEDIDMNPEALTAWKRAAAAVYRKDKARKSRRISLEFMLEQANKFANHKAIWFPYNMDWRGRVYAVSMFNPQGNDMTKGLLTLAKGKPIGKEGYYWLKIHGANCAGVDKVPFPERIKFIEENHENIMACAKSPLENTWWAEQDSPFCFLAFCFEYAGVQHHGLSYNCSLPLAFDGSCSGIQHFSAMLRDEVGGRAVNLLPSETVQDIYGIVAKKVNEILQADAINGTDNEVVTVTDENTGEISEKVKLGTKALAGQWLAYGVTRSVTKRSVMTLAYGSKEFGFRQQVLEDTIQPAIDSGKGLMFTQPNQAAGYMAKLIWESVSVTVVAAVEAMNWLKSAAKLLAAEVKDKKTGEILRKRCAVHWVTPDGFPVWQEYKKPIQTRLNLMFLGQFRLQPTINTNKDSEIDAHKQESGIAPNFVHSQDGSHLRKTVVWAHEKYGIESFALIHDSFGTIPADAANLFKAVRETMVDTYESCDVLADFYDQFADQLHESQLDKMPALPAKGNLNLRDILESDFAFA

| SMILES | run-off transcription, agarose gel and RNA yield by A260 (Syn5 RNA polymerase; replaces CTP at 600 µM, UTP) | run-off transcription, agarose gel and RNA yield by A260 (T7 RNA polymerase; replaces CTP at 600 µM, UTP) | run-off transcription, agarose gel and RNA yield by A260 (Syn5 RNA polymerase; replaces UTP at 600 µM, CTP) | run-off transcription, agarose gel and RNA yield by A260 (T7 RNA polymerase; replaces UTP at 600 µM, CTP) |
| --- | --- | --- | --- | --- |
| Cc1cn([C@@H]2O[C@H](COP(=O)(O)OP(=O)(O)OP(=O)(O)O)[C@@H](O)[C@H]2O)c(=O)nc1N [5-methylcytidine-5′-triphosphate] | the efficiency by which Syn5 RNA polymerase incorporated 5mC and Ps-U | T7 RNA polymerase also incorporates 5mC and Ps-U at comparable efficiencies |  |  |
| O=c1[nH]cc([C@@H]2O[C@H](COP(=O)(O)OP(=O)(O)OP(=O)(O)O)[C@@H](O)[C@H]2O)c(=O)[nH]1 [pseudouridine-5′-triphosphate] |  |  | the efficiency by which Syn5 RNA polymerase incorporated 5mC and Ps-U | T7 RNA polymerase also incorporates 5mC and Ps-U at comparable efficiencies |
